Assay results published in US20050182065A1, “Method of stimulating hair growth” (priority 2004, published 2005).

What was measured:
C3H/HeN mice [1] = assay: Telogen Conversion Assay; format: in vivo; details: for Results: number of days following initiation of treatment when hair growth appeared in 50% of the mice: topical once daily for 5 days
Source text: The Telogen Conversion Assay measures the potential of a compound (hereinafter referred to as the “test compound”) to convert mice in the resting stage of the hair growth cycle (“telogen”) to the active stage of the hair growth cycle (“anagen”). This assay takes advantage of the fact that the fur (i.e. hair) of 40-day-old C3H/HeN mice is in the telogen phase. This phase usually continues until about 75 days of age, at which point, anagen naturally occurs in these animals. In this assay, selected areas of 40-day-old mice (approximate) are shaved, contacted with a test agent, or a control, and the difference in the rate of hair growth is measured (i.e. induction of the anagen phase). The first sign of anagen is the darkening of skin color as melanocytes in the follicles start to synthesize melanin, in preparation for the production of pigmented hairs.
Female C3H/HeN mice, 7 weeks old (Charles River Laboratories, Raleigh, N.C.) were used for the study. Fur was clipped from the dorsal region of the mice prior to initiation of the study. Only mice with pink skin, a visual indication of the telogen phase, were selected for inclusion in the study.
Test compounds (from Table A) were dissolved in a vehicle consisting of propylene glycol (30%) and ethanol (70%). A test compound dissolved in vehicle, or a vehicle control (30/70 propylene glycol/ethanol, unless otherwise specified) was applied topically to the clipped dorsal region of the mice in each test group (7-10 mice) in a volume of 20 μl/cm^2. Treatments were applied once daily for 5 days.
The treatment area was observed and graded for signs of hair growth. The hair growth response was quantified by recording, for each animal, the day on which signs of hair growth first appeared over the treated area. The first sign of anagen was the darkening of skin color as melanocytes in the follicles started to synthesize melanin. The response time was measured as the number of days between initiation of treatment and when hair growth was present in 50% of the mice in a given group.
The results are reported as the number of days following initiation of treatment when hair growth appeared in 50% of the mice in a given group.

C3H/HeN mice [2] = assay: Telogen Conversion Assay; format: in vivo; details: Experiment 8; for Results: number of days following initiation of treatment when hair growth appeared in 50% of the mice: topical once daily for 5 days, solvent polyethylene glycol 30 v/v %, ethanol 30 v/v %, transcutanol 40 v/v %, vehicle 28; for Induction of anagen (conclusion in words): transcutol, ethanol, polypropylene glycol vehicle
[3] = Experiment 15, 0.03 w/v %, propylene glycol 30%/ethanol 70%, vehicle >30
[4] = Experiment 15, 0.3 w/v %, propylene glycol 30%/ethanol 70%, vehicle >30
[5] = Experiment 15, 1.0 w/v %, propylene glycol 30%/ethanol 70%, vehicle >30
[6] = Experiment 15, terminated early

In the case of `Cn1nc(O[C@@H]2c3cc(S(=O)(=O)c4ccc(O)cc4)ccc3OC(C)(C)[C@@]2(C)O)ccc1=O` [Compound #6], the “Results: number of days following initiation of treatment when hair growth appeared in 50% of the mice” value (“Results: number … in 50% of the mice” for short) (C3H/HeN mice [1]; Experiment 2, 0.3 w/v %, propylene glycol 30%/ethanol 70%, vehicle 25) is reported as 18 days, the “Results: number … in 50% of the mice” value (C3H/HeN mice [1]; Experiment 2, 1.0 w/v %, propylene glycol 30%/ethanol 70%, vehicle 25) is reported as 30 days and the “Results: number … in 50% of the mice” value (C3H/HeN mice [1]; Experiment 5, 0.03 w/v %, propylene glycol 30%/ethanol 70%, vehicle >35) is reported as over 35 days. The “Results: number … in 50% of the mice” value (C3H/HeN mice [1]; Experiment 5, 0.1 w/v %, propylene glycol 30%/ethanol 70%, vehicle >35) was over 35 days, the “Results: number … in 50% of the mice” value (C3H/HeN mice [1]; Experiment 5, 0.3 w/v %, propylene glycol 30%/ethanol 70%, vehicle >35) was 23 days and the “Induction of anagen (conclusion in words)” value (from here on “Induction of anagen”) (C3H/HeN mice [1]; Experiment 5, terminated early) was “induced anagen at the highest concentration tested (0.3%)”. For the same compound, the “Results: number … in 50% of the mice” value (C3H/HeN mice [1]; Experiment 6, 0.003 w/v %, propylene glycol 30%/ethanol 70%, vehicle >35) was over 35 days, the “Results: number … in 50% of the mice” value (C3H/HeN mice [1]; Experiment 6, 0.03 w/v %, propylene glycol 30%/ethanol 70%, vehicle >35) was over 35 days and the “Results: number … in 50% of the mice” value (C3H/HeN mice [1]; Experiment 6, 0.3 w/v %, propylene glycol 30%/ethanol 70%, vehicle >35) was over 35 days. For the same compound, the “Induction of anagen” value (C3H/HeN mice [1]; Experiment 6, terminated early, up to day 35) was “no effect was seen”, the “Results: number … in 50% of the mice” value (C3H/HeN mice [1]; Experiment 7, 0.003 w/v %, propylene glycol 30%/ethanol 70%, vehicle 29) was 31 days and the “Results: number … in 50% of the mice” value (C3H/HeN mice [1]; Experiment 7, 0.03 w/v %, propylene glycol 30%/ethanol 70%, vehicle 29) was over 33 days. For the same compound, the “Results: number … in 50% of the mice” value (C3H/HeN mice [1]; Experiment 7, 0.3 w/v %, propylene glycol 30%/ethanol 70%, vehicle 29) was over 33 days, the “Induction of anagen” value (C3H/HeN mice [1]; Experiment 7, proceeded to completion) was “did not induce anagen prior to the control group” and the “Results: number … in 50% of the mice” value (C3H/HeN mice [1]; [3]) was over 30 days. The “Results: number … in 50% of the mice” value (C3H/HeN mice [1]; [4]) was 14 days, the “Results: number … in 50% of the mice” value (C3H/HeN mice [1]; [5]) was over 30 days and the “Induction of anagen” value (C3H/HeN mice [1]; [6]) was “induced anagen when applied at a concentration of 0.3 w/v %”.
With `Cn1nc(O[C@@H]2c3cc(S(=O)(=O)c4ccccc4O)ccc3OC(C)(C)[C@@]2(C)O)ccc1=O` [Compound #7] the “Results: number … in 50% of the mice” value (C3H/HeN mice [1]; Experiment 9, 0.03 w/v %, propylene glycol 30%/ethanol 70%, terminated early) was over 33 days, the “Results: number … in 50% of the mice” value (C3H/HeN mice [1]; Experiment 9, 0.3 w/v %, propylene glycol 30%/ethanol 70%, terminated early) was over 33 days and the “Results: number … in 50% of the mice” value (C3H/HeN mice [1]; Experiment 9, 1.0 w/v %, propylene glycol 30%/ethanol 70%, terminated early) was over 33 days. The “Results: number … in 50% of the mice” value (C3H/HeN mice [1]; Experiment 10, 0.1 w/v %, propylene glycol 30%/ethanol 70%, terminated early) was over 34 days, the “Results: number … in 50% of the mice” value (C3H/HeN mice [1]; Experiment 10, 0.1 w/v %, solvent polyethylene glycol 30 v/v %, ethanol 30 v/v %, transcutanol 40 v/v %, terminated early) was over 34 days and the “Results: number … in 50% of the mice” value (C3H/HeN mice [1]; Experiment 10, 0.3 w/v %, propylene glycol 30%/ethanol 70%, terminated early) was over 34 days. The “Results: number … in 50% of the mice” value (C3H/HeN mice [1]; Experiment 10, 0.3 w/v %, solvent polyethylene glycol 30 v/v %, ethanol 30 v/v %, transcutanol 40 v/v %, terminated early) was over 34 days, the “Results: number … in 50% of the mice” value (C3H/HeN mice [1]; [3]) was over 30 days and the “Results: number … in 50% of the mice” value (C3H/HeN mice [1]; [4]) was over 30 days. The “Results: number … in 50% of the mice” value (C3H/HeN mice [1]; [5]) was over 30 days, the “Induction of anagen” value (C3H/HeN mice [1]; [6]) was “showed no effect at the time of termination” and the “Results: number … in 50% of the mice” value (C3H/HeN mice [2]; 0.3 w/v %) was 21 days. The “Results: number … in 50% of the mice” value (C3H/HeN mice [2]; 1.0 w/v %) was 21 days and the “Induction of anagen” value (C3H/HeN mice [2]) was “did exhibit activity”.
For `CCOC(=O)CCCn1nnnc1-c1ccc2c(c1)[C@H](Oc1ccc(O)nn1)[C@@](C)(O)C(C)(C)O2` [Compound #2], the “Results: number … in 50% of the mice” value (C3H/HeN mice [1]; Experiment 3, 0.1 w/v %, propylene glycol 30%/ethanol 70%, terminated early) was over 35 days, the “Results: number … in 50% of the mice” value (C3H/HeN mice [1]; Experiment 3, 0.3 w/v %, propylene glycol 30%/ethanol 70%, terminated early) was over 35 days and the “Results: number … in 50% of the mice” value (C3H/HeN mice [1]; Experiment 3, 1.0 w/v %, propylene glycol 30%/ethanol 70%, terminated early) was over 35 days. The “Results: number … in 50% of the mice” value (C3H/HeN mice [1]; Experiment 3, 2.5 w/v %, propylene glycol 30%/ethanol 70%, terminated early) was over 35 days.
`CCOc1c(N[C@@H]2c3cc(S(=O)(=O)c4cccc(O)c4)ccc3OC(C)(C)[C@@]2(C)O)c(=O)c1=O` [Compound #3] was tested, and the “Results: number … in 50% of the mice” value (C3H/HeN mice [2]; 0.3 w/v %) was over 35 days, the “Results: number … in 50% of the mice” value (C3H/HeN mice [2]; 1.0 w/v %) was over 35 days and the “Induction of anagen” value (C3H/HeN mice [2]) was “inactive”.
For `Cn1nc(OC2c3cc(S(=O)(=O)c4ccc(O)cc4)ccc3OC(C)(C)C2(C)O)c2ccccc2c1=O` (stereo not drawn) [Compound #4], the “Results: number … in 50% of the mice” value (C3H/HeN mice [2]; 0.3 w/v %) was over 35 days, the “Results: number … in 50% of the mice” value (C3H/HeN mice [2]; 1.0 w/v %) was over 35 days and the “Induction of anagen” value (C3H/HeN mice [2]) was “inactive”.
With `CCOC(=O)CCCn1nnnc1-c1ccc2c(c1)[C@@H](Oc1ccnc(O)c1)[C@](C)(O)C(C)(C)O2` [Compound #5] the “Results: number … in 50% of the mice” value (C3H/HeN mice [2]; 0.3 w/v %) was over 35 days, the “Results: number … in 50% of the mice” value (C3H/HeN mice [2]; 1.0 w/v %) was over 35 days and the “Induction of anagen” value (C3H/HeN mice [2]) was “inactive”.
